Assay results: patent US20100010087A1, “Methods for Inducing Stem Cell Migration and Specialization with EC-18” (priority 2008, published 2010)

Tests used:
SCF (Kit) mRNA = assay: SCF mRNA expression in lung and liver of mice after CLP (RT-PCR); type: in vivo; details: 50 mg/kg
Protocol: (§1) Specifically, donor transgenic GFP (C57BL/6) mice are given 5-FU (150 mg/kg) to kill mature cells. Bone marrow is harvested. C57BL/6 congenic recipient mice are exposed to lethal doses of whole-body radiation (10Gy Cesium-137 at 1.0 Gy/min) and then undergo bone marrow transplant. Engraftment of GFP-BMSC is confirmed after five weeks in select sacrificed mice. Surviving mice are GFP-BMSC chimeras available for investigation. These GFP-BMSC mice then undergo CLP. Specifically, the mice are anesthetized and undergo laparotomy. The sham group undergo laparotomy only. The non-sham group has the cecum ligated and punctured (size and number of punctures may vary depending on the desired severity of injury). Mice are sacrificed at six, twelve and 24 hours. […] Serum is analyzed for levels of cytokines (TNF-α, IL-1, IL-2, IL-4, IL-6, IL-10, and IFN-γ) and chemokines (SDF-1 and SCF). […]
(§2) Additionally, four groups of 20 mice: sham group underwent celiotomy but not CLP; control group underwent CLP and administration of PBS; simultaneous treatment group (STG) had administration of 50 mg/kg MADG PO. […] Serum and tissue levels of pro- and anti-inflammatory cytokines were measured. Serum levels of chemokines stromal cell-derived factor (SDF-1) and stem cell factor (SCF) were measured to ascertain if effects of MADG involve stimulation of bone marrow stromal and stem cells. […]

SDF-1 (Cxcl12) mRNA = assay: SDF-1 mRNA expression in lung and liver of mice after CLP (RT-PCR); type: in vivo; details: 50 mg/kg
Protocol: as §1, §2

CCCCC/C=C\C/C=C\CCCCCCCC(=O)OC(COC(C)=O)COC(=O)CCCCCCCCCCCCCCC (racemic) [EC-18, 1-palmitoyl-2-linoleoyl-3-acetyl-rac-glycerol]
increased early expression: kit (SCF) mRNA expression in the liver (SCF (Kit) mRNA; liver, compared to controls (FIG. 5B)) | kit (SCF) mRNA expression in the lung (SCF (Kit) mRNA; lung, compared to controls (FIG. 4B)) | Cxcl2 (SDF-1) mRNA expression in the liver (SDF-1 (Cxcl12) mRNA; liver, compared to controls (FIG. 5A)) | Cxcl2 (SDF-1) mRNA expression in the lung (SDF-1 (Cxcl12) mRNA; lung, compared to controls (FIG. 4A))
